Laboratory results: patent US20220274947A1, “NOVEL HETEROARYL-TRIAZOLE COMPOUNDS AS PESTICIDES” (Bayer Aktiengesellschaft, priority 2019, published 2022)

Assays:
Format in all cases: in vivo
[1] = test system: Rhipicephalus microplus; assay: Rhipicephalus (Boophilus) microplus injection test (BOOPMI Inj); settings: 168 h, injection into adult engorged female ticks, egg deposition after 7 days, read-out: activity (efficacy: 100% means all eggs are infertile); for pest or weed control at 0.004 mg: application rate 4 μg/tick; for pest or weed control at 0.02 mg: application rate 20 μg/tick
Method in brief: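 Compound in DMSO, 1 μL, injected abdominally into five adult engorged females, which were then held in a climate chamber. Read-out is egg fertility, scored from deposition at 7 days, with unclear eggs followed to hatching (~42 days); 0% means all eggs fertile, 100% all infertile.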

[2] = test system: Rhipicephalus microplus; assay: Rhipicephalus (Boophilus) microplus in-vitro contact test, larval cattle tick, strain Parkhurst (BOOPMI Cont); settings: application rate 5 μg/cm^2 (=500 g/ha), tick larvae, after 48 hours, read-out: activity (efficacy: 100% means all larvae are dead or moribund)
Method in brief: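 After 48 h at 27° C. and 85% humidity, percent dead or moribund larvae was scored from negative geotactic behaviour. Larvae (20-50, Parkhurst strain, synthetic pyrethroid-resistant) were exposed in tubes coated with compound from acetone, 900 ppm corresponding to 5 μg/cm^2.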

[3] = test system: Ctenocephalides felis; assay: Ctenocephalides felis in-vitro contact test, adult cat flea (CTECFE Cont); settings: application rate 5 μg/cm^2 (=500 g/ha), adult cat fleas, after 48 hours, read-out: activity (efficacy: 100% means all fleas are dead or moribund)
Method in brief: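 Efficacy, as percent of fleas dead or moribund, was scored 48 h after adults (5-10 per tube) were placed in glass tubes whose walls carried dried compound at 5 μg/cm^2 (900 ppm solution). Moribund meant failing to climb away from a 45-50° C. hot plate within 5 min.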

[4] = test system: Diabrotica balteata; assay: Diabrotica balteata spray test; settings: 168 h, wheat seeds, larvae, after 7 days, read-out: activity (efficacy: 100% means all seedlings have grown up like in the untreated, uninfected control); for pest or weed control at 32 µg/disc, 100 g/ha: application rate 100 g/ha (=32 μg/well); for pest or weed control at 160 µg/disc, 500 g/ha: application rate 500 g/ha (=160 μg/well)
Method in brief: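 Efficacy (%) was scored 7 days after spraying, with 100% meaning growth like the untreated, uninfected control and 0% meaning no seedling grew. Spray solutions of compound in acetone/DMF with emulsifier-containing water went onto 1-day-germinated wheat seeds, and each unit was then infested with 10-20 banded cucumber beetle larvae.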

[5] = test system: Nezara viridula; assay: Nezara viridula spray test; settings: in Hordeum vulgare, 96 h, barley plants, larvae, after 4 days; for mortality at 100 g/ha: application rate 100 g/ha; for mortality at 500 g/ha: application rate 500 g/ha
Method in brief: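 Mortality was read at day 4 (0% = no kill, 100% = total kill) after spraying larva-infested barley plants. Test solutions were made from an acetone/DMF concentrate diluted with water holding 1000 ppm alkylarylpolyglycol ether emulsifier.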

[6] = test system: Spodoptera frugiperda; assay: Spodoptera frugiperda spray test; settings: in Zea mays, 168 h, read-out: activity (mortality)
Method in brief: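 Percent kill of fall armyworm caterpillars was assessed 7 days after infesting dried, treated maize leaf sections. Treatment was a spray of compound in acetone/dimethylformamide, diluted with water containing emulsifier at 1000 ppm.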

[7] = test system: Culex quinquefasciatus strain P00; assay: Culex quinquefasciatus test (CULXFA surface treatment & contact assay); settings: exposure 30 minutes, 24 hours after contact, read-out: efficacy (mortality); for mortality at 20 mg/m2: surface concentration 20 mg/m^2, glazed tile; for mortality at 4 mg/m2: surface concentration 4 mg/m^2, glazed tile
Procedure: Culex quinquefasciatus Test (CULXFA Surface Treatment & Contact Assay) Solvent: Aceton+2000 ppm rapeseed oil methyl ester (RME)
In order to produce a sufficient, active ingredient containing solution it is necessary to solve the test compound in the solvent-mix (acetone at 2 mg/ml/RME 2 000 ppm). This solution is pipetted onto a glazed tile and after evaporation of the acetone, adult mosquitoes of the species Culex quinquefasciatus strain P00 are placed onto the dried surface. The exposure time is 30 minutes. Mortality in percent (%) is determined 24 hours after contact of the insects to the treated surface. 100% mortality means that all tested insects are dead, whereas 0% means that no insect died.

| Structure (SMILES) | pest or weed control at 0.004 mg [1] | pest or weed control at 0.02 mg [1] | pest or weed control at 5 µg/cm2 [2] | pest or weed control at 5 µg/cm2 [3] | pest or weed control at 32 µg/disc, 100 g/ha [4] | pest or weed control at 160 µg/disc, 500 g/ha [4] | mortality at 100 g/ha [5] | mortality at 500 g/ha [5] | mortality at 100 g/ha [6] | mortality at 500 g/ha [6] | mortality at 20 mg/m2 [7] | mortality at 4 mg/m2 [7] |
| --- | --- | --- | --- | --- | --- | --- | --- | --- | --- | --- | --- | --- |
| C[C@H](NC(=O)c1cc(Cl)nc(C(F)(F)F)c1)c1ncnn1-c1ccc(C#N)cn1 [II-5] | 100% | 100% | 100% | 100% | 100% | 100% | 90% | 100% | 100% | 100% | 80 to 100% |  |
| C[C@H](NC(=O)c1ccnc(C(F)(F)F)n1)c1ncnn1-c1ccc(C#N)cn1 [II-8] | 100% | 100% | 100% | 90% | 100% | 100% | 100% | 100% |  | 100% | 80 to 100% | 80 to 100% |
| C[C@H](NC(=O)c1cc(Cl)cc(SC(F)F)c1)c1ncnn1-c1ccc(C#N)cn1 [II-11] | 100% | 100% | 100% | 100% | 100% | 100% | 100% |  | 100% | 100% | 80 to 100% | 80 to 100% |
| C[C@H](NC(=O)c1cc(Cl)cc(C(F)F)c1)c1ncnn1-c1ccc(C#N)cn1 [II-12] | 100% | 100% | 100% | 100% | 100% | 100% | 100% | 100% | 100% | 100% | 80 to 100% | 80 to 100% |
| C[C@H](NC(=O)c1cc(Br)cc(Br)c1)c1ncnn1-c1ccc(C#N)cn1 [II-13] | 100% | 100% | 100% | 100% | 100% |  |  | 90% | 100% | 100% | 80 to 100% |  |
| C[C@H](NC(=O)c1cc(Cl)cc(OC(F)(F)F)c1)c1ncnn1-c1ncc(Cl)s1 [II-16] | 100% | 100% | 100% | 100% | 100% | 100% | 90% | 100% | 100% |  | 80 to 100% |  |
| CCN(C)C(=O)c1ccc(-n2ncnc2[C@H](C)NC(=O)c2cc(Cl)cc(C(F)(F)F)c2)nc1 [II-27] | 100% | 100% | 100% | 100% |  | 100% |  | 100% | 83% | 83% | 80 to 100% |  |
| C[C@H](NC(=O)c1cc(Cl)cc(C(F)(F)F)c1)c1ncnn1-c1cc(N)ccn1 [II-28] | 100% | 100% | 90% | 100% | 100% | 100% |  | 90% |  | 100% | 80 to 100% | 80 to 100% |
| C[C@H](NC(=O)c1cc(Cl)cc(OC(F)(F)F)c1)c1ncnn1-c1ncc(OC(F)F)cn1 [II-30] | 100% | 100% | 100% | 100% | 100% | 100% | 100% | 100% | 100% | 100% |  | 80 to 100% |
| CCN(C(=O)c1ccc(-n2ncnc2[C@H](C)NC(=O)c2cc(Cl)cc(C(F)(F)F)c2)nc1)C1CC1 [II-31] | 100% | 100% | 100% | 100% | 100% | 100% |  | 90% | 100% | 100% | 80 to 100% |  |
| C[C@H](NC(=O)c1cc(C(F)(F)F)cc(C(F)(F)F)c1)c1ncnn1-c1ccc(C(=O)NC2CC2)cn1 [II-37] | 100% | 100% | 100% | 100% | 100% | 100% | 90% | 100% | 100% | 100% | 80 to 100% |  |
| C[C@H](NC(=O)c1cc(Cl)cc(C#N)c1)c1ncnn1-c1ccc(C#N)cn1 [II-57] | 100% | 100% | 100% | 100% |  |  | 100% |  | 100% |  | 80 to 100% | 80 to 100% |
